{"source": "patent US11969433B2", "about": "“Compositions and methods for muscle regeneration using prostaglandin E2” (The Board of Trustees of the Leland Stanford Junior …, priority 2016, dated 2024)", "key": {"MuSCs [1]": {"tested_on": "MuSCs", "assay": "Young MuSC numbers after acute PGE2 treatment, hydrogel culture (hemocytometer count)", "assay_type": "cell-based, mouse", "settings": "young MuSCs, acute 1-day exposure, PGE2 10 ng/ml, one week later", "procedure": "(§1) Following isolation, we resuspended MuSCs in myogenic cell culture medium containing DMEM/F10 (50:50), 15% FBS, 2.5 ng ml^−1 fibroblast growth factor-2 (FGF-2 also known as bFGF) and 1% penicillin-streptomycin. We seeded MuSC suspensions at a density of 500 cells per cm^2 surface area. We maintained cell cultures at 37° C. in 5% CO2 and changed medium daily. […]\n(§2) To assay proliferation, we used three different assays (hemocytometer, VisionBlue, and EdU). […] For hemocytometer cell number count, we collected cells at indicated timepoints by incubation with 0.5% trypsin in PBS for 5 min at 37° C. and quantified them using a hemocytometer at least 3 times. Additionally, we used the VisionBlue Quick Cell Viability Fluorometric Assay Kit (BioVision, catalog #K303) as a readout for cell growth in culture. Briefly, we incubated MuSCs with 10% VisionBlue in culture medium for 3 h, and measured fluorescence intensity on a fluorescence plate reader (Infinite M1000 PRO, Tecan) at Ex=530-570 nm, Em=590-620 nm. […] We quantified EdU positive cells using the MetaMorph Image Analysis software (Molecular Devices). Data analyses were blinded, where researchers performing cell scoring were unaware of the treatment condition given to sample groups analyzed."}, "MuSCs [2]": {"tested_on": "MuSCs", "assay": "EdU incorporation proliferation assay", "assay_type": "cell-based, mouse", "settings": "young MuSCs, PGE2 10 ng/ml", "procedure": "(§3) To assay proliferation, we used three different assays (hemocytometer, VisionBlue, and EdU). For each, we seeded MuSCs on flat hydrogels (hemocytometer and VisionBlue) or collagen-coated plates (EdU assay) at a density of 500 cells per cm^2 surface area. For hemocytometer cell number count, we collected cells at indicated timepoints by incubation with 0.5% trypsin in PBS for 5 min at 37° C. and quantified them using a hemocytometer at least 3 times. Additionally, we used the VisionBlue Quick Cell Viability Fluorometric Assay Kit (BioVision, catalog #K303) as a readout for cell growth in culture. Briefly, we incubated MuSCs with 10% VisionBlue in culture medium for 3 h, and measured fluorescence intensity on a fluorescence plate reader (Infinite M1000 PRO, Tecan) at Ex=530-570 nm, Em=590-620 nm. We assayed proliferation using the Click-iT EdU Alexa Fluor 555 Imaging kit (Life Technologies). Briefly, we incubated live cells with EdU (20 μM) for 1 hr prior to fixation, and stained nuclei according to the manufacturer's guidelines together with anti-MYOGENIN (Santa Cruz, catalog #sc576, 1:250) to assay differentiation. […] We quantified EdU positive cells using the MetaMorph Image Analysis software (Molecular Devices). Data analyses were blinded, where researchers performing cell scoring were unaware of the treatment condition given to sample groups analyzed."}, "MuSCs [3]": {"tested_on": "MuSCs", "assay": "VisionBlue metabolic viability assay", "assay_type": "cell-based, mouse", "settings": "PGE2 1-200 ng/ml", "procedure": "as §3"}, "MuSCs [4]": {"tested_on": "MuSCs", "assay": "cAMP activity assay (cAMP-Glo)", "assay_type": "cell-based, mouse", "settings": "1 hr PGE2 10 ng/ml", "procedure": "MuSCs were treated with DMSO (vehicle) or PGE2 (10 ng/ml) for 1 h and cyclic AMP levels measured according to the cAMP-Glo Assay protocol optimized by the manufacturer (Promega). Each sample was assayed in triplicate and in two independent experiments."}, "MuSCs [5]": {"tested_on": "MuSCs", "assay": "MuSC proliferation in charcoal stripped serum medium", "assay_type": "cell-based, mouse", "settings": "PGE2 10 ng/ml every two days, 7 days", "procedure": "as §1, §2"}, "aged MuSCs": {"tested_on": "aged MuSCs", "assay": "Clonal aged MuSC proliferation and death by time-lapse microscopy in hydrogel microwells", "assay_type": "cell-based, mouse", "excerpt": "We assayed clonal muscle stem cell proliferation by time-lapse microscopy as previously described^5,6. Briefly, we treated isolated aged MuSCs with PGE2 (Cayman Chemical) or vehicle (DMSO) for 24 hr. After five days of growth on hydrogels, cells were reseeded at a density of 500 cells per cm^2 surface area in hydrogel microwells with 600 μm diameter. For time-lapse microscopy we monitored cell proliferation for those wells with single cells beginning 12 hr (day 0) to two days after seeding and recorded images every 3 min at 10× magnification using a PALM/AxioObserver Z1 system (Carl Zeiss MicroImaging) with a custom environmental control chamber and motorized stage. We changed medium every other day in between the acquisition time intervals. We analyzed time-lapse image sequences using the Baxter Algorithms for Cell Tracking and Lineage Reconstruction to identify and track single cells and generate lineage trees^5,6,8-10.\nViable and dead cells were distinguished in time-lapse sequences based on phase-contrast boundary and motility maintenance or loss, respectively. […] The values were estimated using the equations described in^6, and found in Table 1. We denote the proliferation rates in the two intervals p24 and p48 and the corresponding death rates d24 and d48. […] The modeled cell counts in the two time intervals are given by […]"}, "gastrocnemius muscles": {"tested_on": "gastrocnemius muscles", "assay": "Specific twitch force after treadmill run to exhaustion, aged mice (Example 2)", "assay_type": "in vivo, mouse", "settings": "aged mice 18 months, 3 nM PGE2 after each of 10 daily runs, 4 weeks after last run", "procedure": "The aged mice (18 months old) were subject to treadmill run to exhaustion daily for 10 days. The treadmill run was performed using the Exer3/6 (Columbus Instruments). Mice ran on the treadmill at 20 degrees downhill, starting at a speed of 10 meters/min. After 3 min, the speed was increased 1 meter/min to a final speed of 20 meters/min. Exhaustion was defined as the inability of the animal to remain on the treadmill despite electrical prodding. 2 h after each treadmill run, both gastrocnemius muscles of each mouse were injected with either PBS (control group) or 3 nM PGE2 (experimental group). The force measurement was performed 4 weeks after the last treadmill run using a […]-LR force transducer (Aurora Scientific) with a single 0.1 ms pulse at predetermined supramaximal stimulation intensity. The muscle force and synchronization pulses were recorded via a PCI-6251 acquisition card (National Instruments) and analyzed using Matlab. FIGS. 4O-4P show the specific muscle force values that were calculated by normalizing the force measurements with the muscle physiological cross-sectional area. […] Five repetitive measurements were made from each muscle. N=4 for the control group and n=5 for the PGE2 injected group. ** represents a statistical significant value of p<0.005 by 2-tailed Mann Whitney test."}, "[6]": {"settings": "aged MuSCs, 1 day PGE2, 48 h tracking"}, "[7]": {"settings": "first 24 hour interval, aged MuSC clones"}, "[8]": {"settings": "second 24 hour interval, aged MuSC clones"}}}
{"smiles": "CCCCC[C@H](O)/C=C/[C@H]1[C@H](O)CC(=O)[C@@H]1C/C=C\\CCCC(=O)O", "note": "[PGE2, prostaglandin E2]", "values": [{"measurement": "increase in the number of MuSCs relative to controls", "setting": "MuSCs [1]", "value": 6, "unit": "fold"}, {"measurement": "cell division assayed by EDU incorporation", "setting": "MuSCs [2]", "value": "increased"}, {"measurement": "proliferation measured by VisionBlue", "setting": "MuSCs [3]", "value": "Increase"}, {"measurement": "intracellular cAMP", "setting": "MuSCs [4]", "value": "elevated"}, {"measurement": "proliferation of aged MuSCs in charcoal stripped serum medium", "setting": "MuSCs [5]; aged MuSCs", "value": "rescued"}, {"measurement": "division of growth arrested MuSCs in charcoal stripped serum medium", "setting": "MuSCs [5]; young MuSCs", "value": "divided"}, {"measurement": "percent increase in dead cell count", "setting": "aged MuSCs; aged MuSC clones, acute PGE2", "value": 0.1, "unit": "%"}, {"measurement": "percent increase in live cell count", "setting": "aged MuSCs; aged MuSC clones, acute PGE2, n=45 clones", "value": 5.4, "unit": "%"}, {"measurement": "cell death", "setting": "aged MuSCs; [6]", "value": "profound reduction"}, {"measurement": "cumulative cell numbers per clone", "setting": "aged MuSCs; [6]", "value": "remarkable increase"}, {"measurement": "Estimated death rate d24", "setting": "aged MuSCs; [7]", "value": 0.0067, "unit": "per hours"}, {"measurement": "Estimated proliferation rate p24", "setting": "aged MuSCs; [7]", "value": 0.0475, "unit": "per hours"}, {"measurement": "Estimated death rate d48", "setting": "aged MuSCs; [8]", "value": 0.0012, "unit": "per hours"}, {"measurement": "Estimated proliferation rate p48", "setting": "aged MuSCs; [8]", "value": 0.0538, "unit": "per hours"}, {"measurement": "specific twitch force of gastrocnemius muscles", "setting": "gastrocnemius muscles", "value": "increase"}]}
